Oligonucleotides are written 5' to 3', each unit as a sugar letter and its base; * is a phosphorothioate linkage, no mark a phosphodiester; rarer units and linkages stand in square brackets, end groups in braces. Plain capitals give the bases only. d = 2'-deoxy (DNA)
Tests used:
Type in all cases: cell-based, human
[1] = tested on: T-47D breast ductal carcinoma; assay: Relative colony forming efficiency (Example 17, Table 13); conditions: averages of 2-8 determinations
Method in brief: (§1)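 Read-out: methylene blue-stained colonies scored and expressed as percent of control, given as % inhibition of colony forming ability. Cells had been exposed for four hours to phosphorothioate deoxyribonucleotides, usually 0.2 μM, complexed with 2.5 μg DOTMA/DOPE.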

A549 lung cell carcinoma = assay: as above; conditions: averages of 2-8 determinations
Method in brief: as §1

[2] = tested on: PC-3 prostrate cell adenocarcinoma; assay: as above; conditions: averages of 2-8 determinations
Method in brief: as §1

[3] = tested on: HCT116 colon cell carcinoma; assay: as above; conditions: averages of 2-8 determinations
Method in brief: as §1

[4] = tested on: HepG2 hepatocellular carcinoma; assay: as above; conditions: averages of 2-8 determinations
Method in brief: as §1

[5] = tested on: MDA-MB-231 breast cell adenocarcinoma; assay: as above; conditions: averages of 2-8 determinations
Method in brief: as §1

[6] = tested on: MDA PaCa-2 pancreatic cell carcinoma; assay: as above; conditions: MIA PaCa-2 pancreatic cell carcinoma; averages of 2-8 determinations
Method in brief: as §1

[7] = tested on: H596 lung adenosquamous carcinoma cells; assay: as above; conditions: averages of 2-8 determinations
Method in brief: as §1

[8] = tested on: T24 bladder cell carcinoma; assay: as above; conditions: averages of 2-8 determinations
Method in brief: as §1

Hela S3 cells [9] = assay: Relative colony forming efficiency, lipofectin +/- oligonucleotide 4 hours; conditions: Hela S3 cervix carcinoma cells; averages of 2-8 determinations
Method in brief: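 HeLa S3 cells were exposed to phosphorothioate antisense oligonucleotide (0.2 μM unless stated) with lipofectin for 4 h, then grown 7–10 days in 10% FBS medium. Methylene blue-stained colonies were counted and expressed as percent survival relative to lipofectin-only controls.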

Hela 1 mM cells = assay: Sensitization to chemotherapeutics by AS-II-2229B-20, relative colony forming efficiency; conditions: HeLa 1 mM
Description: (§2) Colony forming efficiency was determined using standard protocols. Briefly, the cells were cultured for 24 hours at 37° C. in growth medium with 10% fetal bovine serum. The cells were washed in 5 ml phosphate buffered saline, pH 7.2, once prior to lipofectin +/−oligonucleotide treatment.
(§3) The test oligonucleotides were added to cell cultures in the presence of 2.5 μg of DOTMA/DOPE (Lipofectin; Life Technologies, Inc.) for four hours. The oligonucleotide was tested at 0.2 μM unless otherwise indicated. Controls were the cultures treated with lipofectin but without the oligonucleotide. After 4 hours the medium containing the oligonucleotide was removed and washed with 5 ml of growth medium. The cells were then cultured in growth medium containing 10% fetal bovine serum for seven to ten days. Surviving cells were visualized by methylene blue staining, and colonies were scored. In some experiments cell aliquots were removed from the culture and viability was determined using the trypan blue exclusion test. Results were analyzed as percent of surviving cells compared to control cells.
(§4) Treatment of human tumour cells with very low concentrations of short antisense sequences was tested to determine if these constructs could sensitize the tumour cells to inhibitory effects of other chemotherapeutic drugs.

Hela S3 cells [10] = assay: as above; conditions: HeLa S3
Description: as §2, §3, §4

[11] = drug 40 μM, with AS-II-2229B-20 0.02 μM
[12] = drug 40 μM, without AS-II-2229B-20
[13] = drug 60 μM, with AS-II-2229B-20 0.02 μM
[14] = drug 60 μM, without AS-II-2229B-20

Row | Compound | Reduced relative colony forming efficiency, T-47D (% inhibition of colony forming ability) [1] | Reduced relative colony forming efficiency, A549 (% inhibition of colony forming ability) (A549 lung cell carcinoma) | Reduced relative colony forming efficiency, PC-3 (% inhibition of colony forming ability) [2] | Reduced relative colony forming efficiency, HCT116 (% inhibition of colony forming ability) [3] | Reduced relative colony forming efficiency, HepG2 (% inhibition of colony forming ability) [4] | Reduced relative colony forming efficiency, MDA-MB-231 (% inhibition of colony forming ability) [5] | Reduced relative colony forming efficiency, MIA PaCa-2 (% inhibition of colony forming ability) [6] | Reduced relative colony forming efficiency, 11596 (% inhibition of colony forming ability) [7] | Reduced relative colony forming efficiency, T24 (% inhibition of colony forming ability) [8] | Reduced relative colony forming efficiency, Hela S3 (% inhibition of colony forming ability) (Hela S3 cells [9]) | Relative colony Forming Efficiency (Hela 1 mM cells; [11]) | Relative colony Forming Efficiency (Hela 1 mM cells; [12]) | Relative colony Forming Efficiency (Hela 1 mM cells; [13]) | Relative colony Forming Efficiency (Hela 1 mM cells; [14]) | Relative colony Forming Efficiency (Hela S3 cells [10]; [11]) | Relative colony Forming Efficiency (Hela S3 cells [10]; [12]) | Relative colony Forming Efficiency (Hela S3 cells [10]; [13]) | Relative colony Forming Efficiency (Hela S3 cells [10]; [14])
1 | G*CG*AAG*CAG*AGC*GAG*CAGC*C (antisense dG*dCdG*dAdAdG*dCdAdG*dAdGdC*dGdAdG*dCdAdGdC*dC) [AS-II-163-20] | 9.81% | 37.13% | 7.14% | 29.05% | 18.64% | 22.73% | 9.88% | 32.08% | 5.49% | 45.8% |  |  |  |  |  |  |  | 
2 | CN(Cc1cnc2nc(N)nc(N)c2n1)c1ccc(C(=O)N[C@@H](CCC(=O)O)C(=O)O)cc1 [MTX, methotrexate] |  |  |  |  |  |  |  |  |  |  | 6.5 ± 5.5 | 28 ± 10 | 3.5 ± 0.5 | 12 ± 0.5 | 25 ± 5 | 118 ± 32 | 0 | 116 ± 13
3 | AGGACTGGTTGTGAGGTAGC (antisense dA*dG*dG*dA*dC*dT*dG*dG*dT*dT*dG*dT*dG*dA*dG*dG*dT*dA*dG*dC) [AS-II-1499-20] | 96.67% | 87.8% | 77.28% | 83.01% | 77.5% | 41.26% | 81.17% | 78.3% | 82.81% | 87.56% |  |  |  |  |  |  |  | 
4 | GGCGACCCCTCACTCCAGCA (antisense dG*dG*dC*dG*dA*dC*dC*dC*dC*dT*dC*dA*dC*dT*dC*dC*dA*dG*dC*dA) [AS-II-114-20] | 90.83% | 83.51% | 92.66% | 86.1% | 78.72% | 76.22% | 90.05% | 46.3% | 87.45% | 79.25% |  |  |  |  |  |  |  | 
5 | AS-II-1560.20 (antisense dG*dT*dA*dA*dG*dT*dC*dA*dC*dA*dG*dC*dC*dA*dG*dC*dC*dA*dG*dG) | 86.6% | 84.19% | 78.37% | 85.81% | 73.63% | 46.15% | 33.3% | 71.16% | 32.49% | 82.16% |  |  |  |  |  |  |  | 
6 | GCAGCGAAGCAGAGCGAGCA (antisense dG*dC*dA*dG*dC*dG*dA*dA*dG*dC*dA*dG*dA*dG*dC*dG*dA*dG*dC*dA) [AS-II-166-20] | 91.4% | 81.1% | 74.11% | 73.84% | 78.72% | 29.02% | 91.36% | 61.99% | 68.99% | 80.1% |  |  |  |  |  |  |  | 
7 | C*CCC*TCAC*TCC*AGC*AGC*CT*T (antisense dC*dCdCdC*dTdCdAdC*dTdCdC*dAdGdC*dAdGdC*dCdT*dT) [AS-II-109-20] | 20.63% | 15.14% | 61.51% | 6.76% | 18.08% | 22.38% | 54.24% | 7.28% | 24.89% | 46.83% |  |  |  |  |  |  |  | 
8 | CCCAGGACACTACACAAGCC (antisense dC*dC*dC*dA*dG*dG*dA*dC*dA*dC*dT*dA*dC*dA*dC*dA*dA*dG*dC*dC) [AS-II-2026-20] | 93.41% | 88.81% | 95.29% | 81.47% | 94.54% | 77.1% | 87.65% | 84.16% | 95.46% | 83.79% |  |  |  |  |  |  |  | 
9 | CCTGTCTTCTATCTGGCACC (antisense dC*dC*dT*dG*dT*dC*dT*dT*dC*dT*dA*dT*dC*dT*dG*dG*dC*dA*dC*dC) [AS-II-1989-20] | 90.83% | 83.9% | 77.38% | 78.47% | 80.7% | 54.9% | 70.22% | 56.33% | 77.43% | 61.41% |  |  |  |  |  |  |  | 
10 | CGGAGGGAGAGCATAGTGGA (antisense dC*dG*dG*dA*dG*dG*dG*dA*dG*dA*dG*dC*dA*dT*dA*dG*dT*dG*dG*dA) [AS-II-189-20] | 96.63% | 76.57% | 73.12% | 86.78% | 57.86% | 39.86% | 70.52% | 26.15% | 18.57% | 76.67% |  |  |  |  |  |  |  | 

— patent US20080311126A1, “Antisense Oligonucleotides Directed to Ribonucleotide Reducatase R2 and Uses Thereof in Combination Therapies for the Treatment of Cancer” (Genesense Technologies, Inc, priority 2004, published 2008)
